In patent US20240101576A1, “HETEROCYCLIC INHIBITORS OF EGFR AND/OR HER2, FOR USE IN THE TREATMENT OF CANCER” (Scorpion Therapeutics, Inc., priority 2020, published 2024):

Key:
Type in all cases: cell-based
EGFR WT (Ba/F3 cells) = molecular target: T1, EGFR WT (Ba/F3 cells) (Homo sapiens, UniProt P00533); test: Inhibitor activity on EGFR-dependent cell growth (CellTiter-Glo, 72 h), Ba/F3 EGFR WT; conditions: read-out: BaF3 WT IC50
T1 construct: expressed in transfected cells; host or cells: Ba/F3 (murine pro-B cells), retroviral transduction, puromycin selection, maintained with EGF
T1 sequence (P00533 25-1210): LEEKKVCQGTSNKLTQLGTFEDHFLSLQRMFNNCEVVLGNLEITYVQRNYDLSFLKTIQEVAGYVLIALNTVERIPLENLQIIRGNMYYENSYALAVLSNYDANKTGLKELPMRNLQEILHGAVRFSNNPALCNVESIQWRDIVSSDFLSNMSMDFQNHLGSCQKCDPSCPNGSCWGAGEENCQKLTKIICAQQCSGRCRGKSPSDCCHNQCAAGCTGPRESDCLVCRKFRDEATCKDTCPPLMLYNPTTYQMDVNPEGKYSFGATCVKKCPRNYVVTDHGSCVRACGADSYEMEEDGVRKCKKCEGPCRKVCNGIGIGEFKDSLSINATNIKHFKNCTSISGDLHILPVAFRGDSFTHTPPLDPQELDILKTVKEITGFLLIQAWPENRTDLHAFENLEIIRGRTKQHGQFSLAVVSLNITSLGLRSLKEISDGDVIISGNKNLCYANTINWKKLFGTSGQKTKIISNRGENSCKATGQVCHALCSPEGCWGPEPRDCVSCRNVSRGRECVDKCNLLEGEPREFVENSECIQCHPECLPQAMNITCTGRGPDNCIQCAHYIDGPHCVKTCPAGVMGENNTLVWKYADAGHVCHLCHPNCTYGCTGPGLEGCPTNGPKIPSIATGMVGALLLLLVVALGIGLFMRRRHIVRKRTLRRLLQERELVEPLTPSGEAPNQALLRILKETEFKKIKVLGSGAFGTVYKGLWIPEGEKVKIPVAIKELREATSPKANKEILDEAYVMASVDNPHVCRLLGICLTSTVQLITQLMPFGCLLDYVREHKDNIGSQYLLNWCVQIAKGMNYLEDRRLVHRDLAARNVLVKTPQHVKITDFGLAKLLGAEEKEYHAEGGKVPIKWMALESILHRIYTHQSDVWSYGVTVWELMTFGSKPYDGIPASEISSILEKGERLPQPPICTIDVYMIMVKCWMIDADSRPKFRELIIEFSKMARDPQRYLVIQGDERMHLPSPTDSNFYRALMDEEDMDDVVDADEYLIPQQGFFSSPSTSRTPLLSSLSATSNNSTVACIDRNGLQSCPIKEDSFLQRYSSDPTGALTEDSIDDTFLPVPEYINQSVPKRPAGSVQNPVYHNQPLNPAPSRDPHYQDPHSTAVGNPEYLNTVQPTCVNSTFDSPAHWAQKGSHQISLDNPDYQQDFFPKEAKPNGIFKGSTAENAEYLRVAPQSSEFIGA
Method in brief: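 This growth assay used Ba/F3 cells that depend on wild-type EGFR and are kept in EGF without IL3. Compounds were made up as 10 mM DMSO stocks and diluted 3-fold over 10 points. 120 nL went onto 600 cells/well. After 72 hours, 40 μL CellTiter-Glo was added and luminescence read on EnVision after 30 min.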

[1] = molecular target: T2, EGFR exon 20 NPG Ins D770_N771 (Ba/F3 cells) (Homo sapiens, UniProt P00533, INS770NPG); test: Inhibitor activity on EGFR-dependent cell growth (CellTiter-Glo, 72 h), Ba/F3 EGFR exon 20 NPG Ins; conditions: read-out: BaF3 NPG IC50
T2 construct: expressed in transfected cells; host or cells: Ba/F3 (murine pro-B cells), retroviral transduction, puromycin selection, IL3-independent pool
T2 sequence (P00533 with tags, fused parts or gaps INS770NPG): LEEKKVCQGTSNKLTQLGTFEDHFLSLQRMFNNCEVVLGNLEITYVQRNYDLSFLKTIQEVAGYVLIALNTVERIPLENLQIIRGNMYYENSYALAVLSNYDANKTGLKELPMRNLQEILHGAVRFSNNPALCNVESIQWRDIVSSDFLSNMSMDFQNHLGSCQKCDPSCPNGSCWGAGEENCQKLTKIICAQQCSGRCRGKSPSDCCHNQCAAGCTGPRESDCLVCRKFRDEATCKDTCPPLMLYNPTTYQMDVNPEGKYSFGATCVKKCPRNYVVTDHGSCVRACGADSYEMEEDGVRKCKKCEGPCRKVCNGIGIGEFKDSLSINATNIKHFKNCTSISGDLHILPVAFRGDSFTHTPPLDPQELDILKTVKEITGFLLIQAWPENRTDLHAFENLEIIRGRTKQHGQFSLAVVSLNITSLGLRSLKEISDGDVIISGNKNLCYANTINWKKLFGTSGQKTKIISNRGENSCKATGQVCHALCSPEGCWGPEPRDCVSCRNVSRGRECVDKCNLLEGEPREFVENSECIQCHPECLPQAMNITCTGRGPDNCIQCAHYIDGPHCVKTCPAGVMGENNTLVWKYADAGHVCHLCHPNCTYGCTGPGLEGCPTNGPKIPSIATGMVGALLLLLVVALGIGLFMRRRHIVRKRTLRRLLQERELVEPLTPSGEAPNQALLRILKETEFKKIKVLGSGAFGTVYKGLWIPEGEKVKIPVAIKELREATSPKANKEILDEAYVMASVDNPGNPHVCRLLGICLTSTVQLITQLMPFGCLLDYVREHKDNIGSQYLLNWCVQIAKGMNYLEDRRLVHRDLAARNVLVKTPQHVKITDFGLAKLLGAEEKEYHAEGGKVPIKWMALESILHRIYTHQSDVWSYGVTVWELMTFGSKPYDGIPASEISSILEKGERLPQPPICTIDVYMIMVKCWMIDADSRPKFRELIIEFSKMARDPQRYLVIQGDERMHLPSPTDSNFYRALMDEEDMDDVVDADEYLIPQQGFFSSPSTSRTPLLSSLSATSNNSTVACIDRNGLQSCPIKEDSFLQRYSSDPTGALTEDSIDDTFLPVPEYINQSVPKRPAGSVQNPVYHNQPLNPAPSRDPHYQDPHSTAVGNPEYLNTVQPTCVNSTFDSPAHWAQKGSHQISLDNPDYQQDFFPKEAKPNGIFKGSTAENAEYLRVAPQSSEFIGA
Method in brief: (§1)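 IC50s derive from a sigmoidal dose–response fit of CellTiter-Glo signal. The signal was normalised between […]-treated cells and cell-free medium. Ba/F3 mutant-EGFR cells, seeded at 400–800/well depending on the line, had 72 h of exposure to a 10-point, 3-fold compound series.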

[2] = molecular target: T3, EGFR exon 20 ASV Ins V769_D770 (Ba/F3 cells) (Homo sapiens, UniProt P00533, INS769ASV); test: Inhibitor activity on EGFR-dependent cell growth (CellTiter-Glo, 72 h), Ba/F3 EGFR exon 20 ASV Ins; conditions: read-out: BaF3 ASV IC50
T3 construct: expressed in transfected cells; host or cells: Ba/F3 (murine pro-B cells), retroviral transduction, puromycin selection, IL3-independent pool
Method in brief: as §1

[3] = molecular target: T4, EGFR exon 20 SVD Ins D770_N771 (Ba/F3 cells) (Homo sapiens, UniProt P00533, INS770SVD); test: Inhibitor activity on EGFR-dependent cell growth (CellTiter-Glo, 72 h), Ba/F3 EGFR exon 20 SVD Ins; conditions: read-out: BaF3 SVD IC50
T4 construct: expressed in transfected cells; host or cells: Ba/F3 (murine pro-B cells), retroviral transduction, puromycin selection, IL3-independent pool
T4 sequence (P00533 with tags, fused parts or gaps INS770SVD): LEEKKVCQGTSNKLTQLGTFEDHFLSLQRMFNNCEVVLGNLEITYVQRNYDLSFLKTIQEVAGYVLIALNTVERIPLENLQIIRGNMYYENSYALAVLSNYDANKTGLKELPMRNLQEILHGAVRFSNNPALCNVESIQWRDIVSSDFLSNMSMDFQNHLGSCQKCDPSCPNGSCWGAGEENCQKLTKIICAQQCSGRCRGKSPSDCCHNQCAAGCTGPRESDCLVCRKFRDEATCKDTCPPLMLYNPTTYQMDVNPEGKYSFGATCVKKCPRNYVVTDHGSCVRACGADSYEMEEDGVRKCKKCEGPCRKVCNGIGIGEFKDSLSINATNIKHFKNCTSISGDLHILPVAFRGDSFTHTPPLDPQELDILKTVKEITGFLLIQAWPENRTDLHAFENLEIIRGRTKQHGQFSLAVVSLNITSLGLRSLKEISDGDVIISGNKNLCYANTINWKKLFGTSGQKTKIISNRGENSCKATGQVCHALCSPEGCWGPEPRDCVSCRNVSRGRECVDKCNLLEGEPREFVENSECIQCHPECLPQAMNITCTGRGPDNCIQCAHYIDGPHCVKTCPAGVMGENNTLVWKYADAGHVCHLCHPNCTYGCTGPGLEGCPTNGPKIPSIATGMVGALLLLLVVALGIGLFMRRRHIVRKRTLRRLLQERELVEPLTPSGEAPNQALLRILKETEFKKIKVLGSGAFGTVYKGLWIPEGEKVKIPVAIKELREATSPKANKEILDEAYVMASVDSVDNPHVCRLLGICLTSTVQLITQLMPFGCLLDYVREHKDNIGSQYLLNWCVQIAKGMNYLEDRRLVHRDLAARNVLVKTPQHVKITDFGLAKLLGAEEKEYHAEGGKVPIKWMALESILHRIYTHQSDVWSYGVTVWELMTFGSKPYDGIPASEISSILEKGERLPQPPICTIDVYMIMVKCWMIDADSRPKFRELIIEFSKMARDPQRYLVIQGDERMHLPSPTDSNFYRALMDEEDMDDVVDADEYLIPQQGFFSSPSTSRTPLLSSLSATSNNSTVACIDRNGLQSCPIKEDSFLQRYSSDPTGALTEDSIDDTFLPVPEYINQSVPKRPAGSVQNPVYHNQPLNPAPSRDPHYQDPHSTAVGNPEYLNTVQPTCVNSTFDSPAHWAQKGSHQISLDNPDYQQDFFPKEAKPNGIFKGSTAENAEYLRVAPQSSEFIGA
Method in brief: as §1

[4] = molecular target: T5, EGFR exon 20 FQEA Ins A763_V764 (Ba/F3 cells) (Homo sapiens, UniProt P00533, INS763FQEA); test: Inhibitor activity on EGFR-dependent cell growth (CellTiter-Glo, 72 h), Ba/F3 EGFR exon 20 FQEA Ins; conditions: read-out: BaF3 FQEA IC50
T5 construct: expressed in transfected cells; host or cells: Ba/F3 (murine pro-B cells), retroviral transduction, puromycin selection, IL3-independent pool
T5 sequence (P00533 with tags, fused parts or gaps INS763FQEA): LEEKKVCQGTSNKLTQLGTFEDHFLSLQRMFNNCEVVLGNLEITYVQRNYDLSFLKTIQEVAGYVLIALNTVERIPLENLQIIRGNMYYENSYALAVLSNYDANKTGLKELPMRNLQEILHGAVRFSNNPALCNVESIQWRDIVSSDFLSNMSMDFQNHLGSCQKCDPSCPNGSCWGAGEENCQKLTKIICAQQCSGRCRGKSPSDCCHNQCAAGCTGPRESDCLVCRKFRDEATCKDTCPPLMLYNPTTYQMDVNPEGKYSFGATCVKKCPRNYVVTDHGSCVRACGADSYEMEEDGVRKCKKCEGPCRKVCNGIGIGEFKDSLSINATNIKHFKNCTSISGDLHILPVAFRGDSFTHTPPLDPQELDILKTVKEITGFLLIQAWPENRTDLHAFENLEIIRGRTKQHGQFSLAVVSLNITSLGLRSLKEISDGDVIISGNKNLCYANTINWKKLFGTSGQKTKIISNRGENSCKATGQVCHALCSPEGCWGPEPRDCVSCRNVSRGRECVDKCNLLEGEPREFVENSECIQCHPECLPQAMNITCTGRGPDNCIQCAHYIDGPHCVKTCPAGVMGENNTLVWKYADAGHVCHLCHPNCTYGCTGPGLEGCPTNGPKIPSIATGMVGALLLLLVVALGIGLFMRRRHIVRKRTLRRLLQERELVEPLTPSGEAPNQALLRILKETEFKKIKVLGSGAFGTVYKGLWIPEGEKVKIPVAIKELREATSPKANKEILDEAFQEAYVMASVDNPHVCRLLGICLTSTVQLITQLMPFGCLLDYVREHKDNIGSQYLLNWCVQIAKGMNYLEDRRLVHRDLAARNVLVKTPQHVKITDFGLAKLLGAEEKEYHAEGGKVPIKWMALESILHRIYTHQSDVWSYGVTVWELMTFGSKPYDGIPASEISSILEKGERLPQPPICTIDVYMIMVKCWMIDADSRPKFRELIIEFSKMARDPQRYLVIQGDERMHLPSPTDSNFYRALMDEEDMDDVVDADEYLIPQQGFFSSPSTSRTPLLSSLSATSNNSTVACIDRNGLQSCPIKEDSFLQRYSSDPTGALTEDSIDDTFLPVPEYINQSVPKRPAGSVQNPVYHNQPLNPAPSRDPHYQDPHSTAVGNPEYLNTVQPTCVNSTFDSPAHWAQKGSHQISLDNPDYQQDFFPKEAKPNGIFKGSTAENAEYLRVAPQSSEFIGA
Method in brief: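 Ba/F3 cells engineered with each EGFR variant were plated (400, 600 or 800 per well for L858R, L858R/C797S, and exon 19del/FQEA). They were exposed for 72 hours to compound serially diluted from a 10 mM DMSO stock. Remaining viable cells were quantified by CellTiter-Glo, and IC50 was curve-fitted.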

[5] = molecular target: T2, EGFR exon 20 NPG Ins D770_N771 (Ba/F3 cells); test: Inhibitor activity on EGFR phosphorylation (pEGFR AlphaLISA, 2 h), Ba/F3 EGFR exon 20 NPG Ins
From the text: Example B. Inhibitor Activity on EGFR phosphorylation (pEGFR)
EGFR mutant Ba/F3 cells were generated by transduction with retrovirus containing vectors expressing EGFR L858R, EGFR exon 19del, EGFR L858R/C797S, EGFR exon 20 NPG Ins D770_N771, EGFR exon 20 ASV Ins V769_D770, or EGFR exon 20 SVD Ins D770_N771 genes along with a puromycin selection marker. Transduced cells are selected with puromycin for 7 days and are then be transferred into culture media without Interleukin 3 (IL3). Surviving cells are confirmed to express EGFR by Western blot and maintained as a pool. CUTO14 cells were obtained from Dr. Robert C. Doebele at the University of Colorado. The IC50 date are included in Table 6 and Table 7.
1.1 Cells are harvested from flask into cell culture medium and the cell number counted.
1.2 Cells are diluted with culture medium to the desired density and 40 μL of cell suspension is added into each well of 384-well cell culture plate and the seeding density is 50K cells/well (Ba/F3) or 12.5K cells/well (CUTO14).
2 Compound Preparation and Treatment
2.1 Test compounds are dissolved to 10 mM in a DMSO stock solution. 45 μL of stock solution is transferred to a 384 polypropylene plate (pp-plate). Perform 3-fold, 10-point dilution via transferring 15 μL compound into 30 μL DMSO using a TECAN (EVO200) liquid handler.
2.2 Spin plates at room temperature at 1,000 RPM for 1 minute.
2.3 Transfer 5 nL of diluted compound from compound source plate into the cell plate.
2.4 After compound treatment for 2 hours, perform pEGFR detection by AlphaLISA for compound treatment plates as described in “Detection” section.
3 Detection by pEGFR AlphaLISA (Perkin-Elmer)
3.1 Plates are removed from incubators and equilibrated at room temperature for 10 minutes, and media was removed
3.2 10 μL of lysis buffer is added and plates shaken at 600 rpm for 1 hr.
3.3 Prepare acceptor mix just before use and dispense 5 μL of acceptor mix to all the wells. Shake 350 rpm for Ihr in the dark
3.4 Prepare donor mix under low light conditions prior to use. Dispense 5 μL of donor mix to all the wells. Mix well on the shaker, seal and wrap in aluminum foil and incubate 1.5 hrs at room temperature in the dark
3.5 Transfer 18.5 μL mixture to OptiPlate 384, and read using an Envision. The IC50 date were included in Table 6 and Table 7.

[6] = molecular target: T3, EGFR exon 20 ASV Ins V769_D770 (Ba/F3 cells); test: Inhibitor activity on EGFR phosphorylation (pEGFR AlphaLISA, 2 h), Ba/F3 EGFR exon 20 ASV Ins; conditions: EGFR phosphorylation, AlphaLISA, 2 hours; read-out: ASV IC50 (pEGFR)
Method in brief: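 pEGFR AlphaLISA readout after 2 h compound exposure; IC50 from 10-point, 3-fold dilutions (10 mM DMSO stock). Ba/F3 mutant lines grown without IL3, 50K cells/well; CUTO14 12.5K cells/well.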

Row | Structure (SMILES) | IC50 (EGFR WT (Ba/F3 cells)) | IC50 [1] | IC50 [2] | IC50 [3] | IC50 [4] | IC50 [5] | IC50 [6]
1 | COCCNc1ccc2nccc(-c3[nH]c4c(c3Nc3cccc(Cl)c3OC)C(=O)NCC4)c2n1 [Compound 680, 3-[(3-chloro-2-methoxyphenyl)amino]-2-[6-[(2-methoxyethyl)amino]-1,5-naphthyridin-4-yl]-1H,5H,6H,7H-pyrrolo[3,2-c]pyridin-4-one; formic acid] | < 100 nM | < 100 nM | < 100 nM | < 100 nM | < 100 nM | < 100 nM | < 100 nM
2 | COc1c(F)cccc1Nc1c(-c2ccnc(N)c2F)[nH]c2c1C(=O)NCC2 [Compound 687, 2-(2-amino-3-fluoropyridin-4-yl)-3-[(3-fluoro-2-methoxyphenyl)amino]-1H,5H,6H,7H-pyrrolo[3,2-c]pyridin-4-one] | > 1000 nM | 100 to 1000 nM | 100 to 1000 nM | 100 to 1000 nM | 100 to 1000 nM | < 100 nM | 100 to 1000 nM
3 | CNc1nccc(-c2[nH]c3c(c2Nc2cccc(F)c2OC)C(=O)NCC3)n1 [Compound 691, 3-[(3-fluoro-2-methoxyphenyl)amino]-2-[2-(methylamino)pyrimidin-4-yl]-1H,5H,6H,7H-pyrrolo[3,2-c]pyridin-4-one] | 100 to 1000 nM | 100 to 1000 nM | 100 to 1000 nM | 100 to 1000 nM | 100 to 1000 nM | < 100 nM | < 100 nM
4 | Cc1c(F)cccc1Nc1c(-c2ccnc(N)c2F)[nH]c2c1C(=O)NCC2 [Compound 692, 2-(2-amino-3-fluoropyridin-4-yl)-3-[(3-fluoro-2-methylphenyl)amino]-1H,5H,6H,7H-pyrrolo[3,2-c]pyridin-4-one] | 100 to 1000 nM | 100 to 1000 nM | 100 to 1000 nM | 100 to 1000 nM | 100 to 1000 nM | < 100 nM | 100 to 1000 nM
5 | CNc1nccc(-c2[nH]c3c(c2Nc2cccc(Cl)c2OC)C(=O)NCC3)n1 [compound 108] | 100 to 1000 nM | < 100 nM | < 100 nM | < 100 nM | 100 to 1000 nM | < 100 nM | < 100 nM
6 | COc1c(Cl)cccc1Nc1c(-c2ccnc(Nc3cnn(C)c3)n2)[nH]c2c1C(=O)NCC2 [compound 109] | < 100 nM | < 100 nM | < 100 nM | < 100 nM | < 100 nM | < 100 nM | < 100 nM
7 | CCc1c(F)cccc1Nc1c(-c2ccnc(N)n2)[nH]c2c1C(=O)NCC2 [compound 195] | 100 to 1000 nM | 100 to 1000 nM | 100 to 1000 nM | 100 to 1000 nM | 100 to 1000 nM | < 100 nM | < 100 nM
8 | Nc1nccc(-c2[nH]c3c(c2Nc2cccc(F)c2F)C(=O)NCC3)n1 [compound 202] | 100 to 1000 nM | 100 to 1000 nM | 100 to 1000 nM | 100 to 1000 nM | 100 to 1000 nM | < 100 nM | < 100 nM
9 | COc1c(Cl)cccc1Nc1c(-c2ccnc(NC(C)=O)n2)[nH]c2c1C(=O)NCC2 [compound 220] | > 1000 nM | 100 to 1000 nM | 100 to 1000 nM | 100 to 1000 nM | 100 to 1000 nM | < 100 nM | 100 to 1000 nM
10 | COc1c(Cl)cccc1Nc1c(-c2ccnc(NC(=O)C3CC3)n2)[nH]c2c1C(=O)NCC2 [compound 221] | > 1000 nM | 100 to 1000 nM | 100 to 1000 nM | 100 to 1000 nM | 100 to 1000 nM | < 100 nM | 100 to 1000 nM
11 | Cc1c(F)cccc1Nc1c(-c2ccnc(N)n2)[nH]c2c1C(=O)NCC2 [compound 282] | 100 to 1000 nM | 100 to 1000 nM | – | – | – | < 100 nM | < 100 nM
12 | Nc1nccc(-c2[nH]c3c(c2Nc2ccccc2)C(=O)NCC3)n1 [compound 283] | 100 to 1000 nM | 100 to 1000 nM | – | – | < 100 nM | < 100 nM | 100 to 1000 nM
13 | COc1c(Cl)cccc1Nc1c(-c2ccnc(N)c2)[nH]c2c1C(=O)NCC2 [compound 285] | > 1000 nM | 100 to 1000 nM | 100 to 1000 nM | 100 to 1000 nM | 100 to 1000 nM | < 100 nM | < 100 nM
14 | COc1nccc(-c2[nH]c3c(c2Nc2cccc(Cl)c2OC)C(=O)NCC3)n1 [compound 286] | > 1000 nM | > 1000 nM | > 1000 nM | > 1000 nM | > 1000 nM | 100 to 1000 nM | > 1000 nM
15 | COc1c(Cl)cccc1Nc1c(-c2ccnc3c2OCC(=O)N3)[nH]c2c1C(=O)NCC2 [compound 308] | > 1000 nM | 100 to 1000 nM | 100 to 1000 nM | 100 to 1000 nM | 100 to 1000 nM | < 100 nM | < 100 nM
16 | COCCOc1ccc2nccc(-c3[nH]c4c(c3Nc3cccc(Cl)c3OC)C(=O)NCC4)c2n1 [compound 678, 3-[(3-chloro-2-methoxyphenyl)amino]-2-[6-(2-methoxyethoxy)-1,5-naphthyridin-4-yl]-1H,5H,6H,7H-pyrrolo[3,2-c]pyridin-4-one] | < 100 nM | < 100 nM | < 100 nM | < 100 nM | < 100 nM | < 100 nM | < 100 nM
17 | COc1ccc2nccc(-c3[nH]c4c(c3Nc3cccc(F)c3OC)C(=O)NCC43CCNCC3)c2n1 [compound 685] | 100 to 1000 nM | 100 to 1000 nM | – | – | – | < 100 nM | < 100 nM
